The results in this text go back to patent US10336762B2 (priority 2017, dated 2019).

Each structure is given as a SMILES string.

For one assay, the system named is TNFα. Description: cells. It is filed as cell-based, human. As to conditions: Homo sapiens, Monocyte, LPS-stimulated human monocytes, TNFα content; read-out: EC50 TNF.
A further assay has as its target IRAK4 enzyme (Homo sapiens (Human), UniProt Q9NWZ3). Description: biochemical. It counts as biochemical. Conditions: IRAK4 enzyme, TR-FRET, 500 μM ATP. Background: Time-resolved FRET reads energy transfer from a long-lived donor to a nearby acceptor.

IRAK4 enzyme, sequence (Q9NWZ3 whole entry): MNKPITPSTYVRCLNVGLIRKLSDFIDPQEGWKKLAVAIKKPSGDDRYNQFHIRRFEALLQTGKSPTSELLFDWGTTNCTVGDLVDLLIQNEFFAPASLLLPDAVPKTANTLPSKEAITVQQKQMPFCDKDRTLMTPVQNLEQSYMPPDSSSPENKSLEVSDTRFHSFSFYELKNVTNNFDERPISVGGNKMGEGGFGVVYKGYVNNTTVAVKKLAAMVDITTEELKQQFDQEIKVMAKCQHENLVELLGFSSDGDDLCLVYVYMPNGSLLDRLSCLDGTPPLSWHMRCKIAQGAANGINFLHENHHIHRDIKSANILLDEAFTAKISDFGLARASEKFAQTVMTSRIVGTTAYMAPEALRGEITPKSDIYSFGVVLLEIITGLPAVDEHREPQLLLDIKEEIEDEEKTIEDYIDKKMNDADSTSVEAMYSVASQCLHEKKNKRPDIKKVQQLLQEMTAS

As to `Cn1cncc1-c1ccc(Nc2cc(-c3ccc4cc(C#N)cnn34)ncc2C(=O)NC[C@@H](F)C(C)(C)O)cc1` [Example 210, (R)-6-(3-cyanopyrrolo[1,2-b]pyridazin-7-yl)-N-(2-fluoro-3-hydroxy-3-methylbutyl)-4-((4-(1-methyl-1H-imidazol-5-yl)phenyl)amino) nicotinamide], the EC50 with TNFα stood at 0.039 µM. Also, at IRAK4 enzyme, the IC50 is less than 0.001 µM.
The corresponding values for `CC(=O)NC1(c2ccc(Nc3cc(-c4ccc5cc(C#N)cnn45)ncc3C(=O)NC[C@@H](F)C(C)(C)O)cc2)CC1` [Example 211, (R)-4-((4-(1-acetamidocyclo-propyl)phenyl)amino)-6-(3-cyanopyrrolo[1,2-b]pyridazin-7-yl)-N-(2-fluoro-3-hydroxy-3-methylbutyl)nicotinamide] are 0.05 µM and 0.001 µM.
The corresponding values for `COC(=O)NC1(c2ccc(Nc3cc(-c4ccc5cc(C#N)cnn45)ncc3C(=O)NC[C@@H](F)C(C)(C)O)cc2)CC1` [Example 212, (R)-methyl (1-(4-((2-(3-cyanopyrrolo[1,2-b]pyridazin-7-yl)-5-((2-fluoro-3-hydroxy-3-methylbutyl)carbamoyl)pyridin-4-yl)amino)phenyl)cyclopropyl)carbamate] are 0.013 µM and less than 0.001 µM.
As for `CC(C)(O)[C@H](F)CNC(=O)c1cnc(-c2ccc3cc(C#N)cnn23)cc1Nc1ccc(N2CCNCC2)nc1` [Example 213, (R)-6-(3-cyanopyrrolo[1,2-b]pyridazin-7-yl)-N-(2-fluoro-3-hydroxy-3-methylbutyl)-4-((6-(piperazin-1-yl)pyridin-3-yl)amino) nicotinamide], the EC50 in the assay on TNFα was determined as 0.051 µM. For the same compound, on IRAK4 enzyme, the IC50 was less than 0.001 µM.
Regarding `COC(=O)NC(C)(C)c1ccc(Nc2cc(-c3ccc4cc(C#N)cnn34)ncc2C(=O)NC[C@@H](F)C(C)(C)O)cc1` [Example 214, (R)-methyl(2-(4-((2-(3-cyanopyrrolo[1,2-b]pyridazin-7-yl)-5-((2-fluoro-3-hydroxy-3-methylbutyl)carbamoyl)pyridin-4-yl)amino)phenyl)propan-2-yl)carbamate], the EC50 in the assay on TNFα stood at 0.036 µM. On IRAK4 enzyme, this compound displayed an IC50 of 0.003 µM.
For `CC(=O)NC(C)(C)c1ccc(Nc2cc(-c3ccc4cc(C#N)cnn34)ncc2C(=O)NC[C@@H](F)C(C)(C)O)cc1` [Example 215, (R)-4-((4-(2-acetamido-propan-2-yl)phenyl)amino)-6-(3-cyanopyrrolo[1,2-b]pyridazin-7-yl)-N-(2-fluoro-3-hydroxy-3-methylbutyl)nicotinamide], in that order: 0.053 µM and 0.002 µM.
For `CC(C)(O)[C@H](F)CNC(=O)c1cnc(-c2ccc3cc(C#N)cnn23)cc1Nc1ccc(-c2cnco2)cc1` [Example 216, (R)-6-(3-cyanopyrrolo[1,2-b]pyridazin-7-yl)-N-(2-fluoro-3-hydroxy-3-methylbutyl)-4-((4-(oxazol-5-yl)phenyl)amino) nicotinamide], in that order: 0.032 µM and less than 0.001 µM.
The corresponding values for `CC(C)(O)[C@H](F)CNC(=O)c1cnc(-c2ccc3cc(C#N)cnn23)cc1Nc1cncc(OC(F)F)c1` [Example 217, (R)-6-(3-cyanopyrrolo[1,2-b]pyridazin-7-yl)-4-((5-(difluoromethoxy)pyridin-3-yl)amino)-N-(2-fluoro-3-hydroxy-3-methylbutyl)nicotinamide] are 0.063 µM and less than 0.001 µM.
As for `Cc1nnc(-c2ccc(Nc3cc(-c4ccc5cc(C#N)cnn45)ncc3C(=O)NC[C@@H](F)C(C)(C)O)cc2)[nH]1` [Example 218, (R)-6-(3-cyanopyrrolo[1,2-b]pyridazin-7-yl)-N-(2-fluoro-3-hydroxy-3-methylbutyl)-4-((4-(5-methyl-4H-1,2,4-triazol-3-yl)phenyl)amino) nicotinamide], the EC50 with TNFα amounted to 0.041 µM. Besides, the IC50 on IRAK4 enzyme was less than 0.001 µM.

A word on the EC50: it is the concentration needed to bring the measured effect to its halfway point. The term IC50 denotes the concentration at which inhibition is half-maximal. Higher therefore signals weaker potency.
